Measurements as given in patent publication US20210122730A1, “GLUCOCORTICOID RECEPTOR MODULATORS” (ORIC Pharmaceuticals, Inc., priority 2017, published 2021).

Target: T1, GR (Homo sapiens, UniProt P04150)
T1 construct: expressed in transfected cells; host or cells: CHO-K1
T1 sequence (P04150 1-777): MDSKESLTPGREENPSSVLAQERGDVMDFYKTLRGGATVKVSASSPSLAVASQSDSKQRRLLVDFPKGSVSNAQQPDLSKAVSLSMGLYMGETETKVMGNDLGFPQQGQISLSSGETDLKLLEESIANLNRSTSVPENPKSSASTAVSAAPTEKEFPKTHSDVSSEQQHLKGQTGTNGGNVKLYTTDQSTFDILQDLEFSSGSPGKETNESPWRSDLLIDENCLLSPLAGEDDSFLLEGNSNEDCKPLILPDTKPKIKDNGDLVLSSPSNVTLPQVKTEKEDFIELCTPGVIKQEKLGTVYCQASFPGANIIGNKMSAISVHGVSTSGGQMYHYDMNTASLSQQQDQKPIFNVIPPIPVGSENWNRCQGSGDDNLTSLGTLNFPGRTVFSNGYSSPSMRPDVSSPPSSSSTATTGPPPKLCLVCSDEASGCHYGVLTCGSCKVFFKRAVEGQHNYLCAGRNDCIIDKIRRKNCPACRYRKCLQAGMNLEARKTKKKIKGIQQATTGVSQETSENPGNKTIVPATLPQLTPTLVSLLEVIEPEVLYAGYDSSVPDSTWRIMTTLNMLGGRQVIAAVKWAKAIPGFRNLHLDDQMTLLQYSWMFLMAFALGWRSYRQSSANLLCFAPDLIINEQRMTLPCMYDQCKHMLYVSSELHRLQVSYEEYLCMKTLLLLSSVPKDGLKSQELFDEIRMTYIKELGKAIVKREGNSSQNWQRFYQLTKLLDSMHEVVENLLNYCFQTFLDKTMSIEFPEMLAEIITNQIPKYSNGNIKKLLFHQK
Assay: In Vitro GR Luciferase Reporter Assay (antagonist mode, CHO-K1-GR-MMTV-Luc reporter cells)
Format: cell-based
Conditions: antagonist assay with 10 nM Dexamethasone, 18-24 hours
Procedure, shortened: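 Antagonist mode: compounds (8 serial 1:5 dilutions) added to GR-MMTV-luciferase CHO-K1 reporter cells co-exposed to 10 nM dexamethasone final, in phenol red-free DMEM plus 10% CSS. After roughly 18-24 h at 37° C, OneGlo luminescence read and IC50 calculated.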

Row | IC50 | SMILES
1 | ≤ 100 nM | COc1ccc(C(=O)[C@]23Cc4cnn(-c5ccc(F)cc5)c4C=C2CC[C@H](S(=O)(=O)c2ccccn2)C3)nc1 [Example 61, ((4aS,6S)-1-(4-fluorophenyl)-6-(pyridin-2-ylsulfonyl)-1,4,5,6,7,8-hexahydro-4aH-benzo[f]indazol-4a-yl)(5-methoxypyridin-2-yl)methanone]
2 | ≤ 100 nM | O=C(c1ccc(C2CC2)cn1)[C@]12Cc3cnn(-c4ccc(F)cc4)c3C=C1CC[C@H](S(=O)(=O)C1CCOCC1)C2 [Example 62, (5-cyclopropylpyridin-2-yl)((4aS,6S)-1-(4-fluorophenyl)-6-((tetrahydro-2H-pyran-4-yl)sulfonyl)-1,4,5,6,7,8-hexahydro-4aH-benzo[f]indazol-4a-yl)methanone]
3 | ≤ 100 nM | CC(C)S(=O)(=O)[C@H]1CCC2=Cc3c(cnn3-c3ccc(F)cc3)C[C@]2(C(=O)c2ccccn2)C1 [Example 63, ((4aS,6S)-1-(4-fluorophenyl)-6-(isopropylsulfonyl)-1,4,5,6,7,8-hexahydro-4aH-benzo[f]indazol-4a-yl)(pyridin-2-yl)methanone]
4 | ≤ 100 nM | O=C(c1cc(C(F)(F)F)ccn1)[C@]12Cc3cnn(-c4ccc(F)cc4)c3C=C1CC[C@H](S(=O)(=O)c1ccc(F)cc1)C2 [Example 64, ((4aS,6S)-1-(4-fluorophenyl)-6-((4-fluorophenyl)sulfonyl)-1,4,5,6,7,8-hexahydro-4aH-benzo[f]indazol-4a-yl)(4-(trifluoromethyl)pyridin-2-yl)methanone]
5 | ≤ 100 nM | O=C(c1ccccn1)[C@]12Cc3cnn(-c4ccc(F)cc4)c3C=C1CC[C@H](S(=O)(=O)C1CCC(F)(F)CC1)C2 [Example 65, ((4aS,6S)-6-((4,4-difluorocyclohexyl)sulfonyl)-1-(4-fluorophenyl)-1,4,5,6,7,8-hexahydro-4aH-benzo[f]indazol-4a-yl)(pyridin-2-yl)methanone]
6 | ≤ 100 nM | Cn1cc(S(=O)(=O)[C@H]2CCC3=Cc4c(cnn4-c4ccc(F)cc4)C[C@]3(C(=O)c3ccc(OC(F)(F)F)cn3)C2)cn1 [Example 66, ((4aS,6S)-1-(4-fluorophenyl)-6-((1-methyl-1H-pyrazol-4-yl)sulfonyl)-1,4,5,6,7,8-hexahydro-4aH-benzo[f]indazol-4a-yl)(5-(trifluoromethoxy)pyridin-2-yl)methanone]
7 | ≤ 100 nM | O=C(c1ccccn1)[C@]12Cc3cnn(-c4ccc(F)cc4)c3C=C1CC[C@H](S(=O)(=O)C1CCC1)C2 [Example 67, ((4aS,6S)-6-(cyclobutylsulfonyl)-1-(4-fluorophenyl)-1,4,5,6,7,8-hexahydro-4aH-benzo[f]indazol-4a-yl)(pyridin-2-yl)methanone]
8 | ≤ 100 nM | O=C(c1ccc(F)cn1)[C@]12Cc3cnn(-c4ccc(F)cc4)c3C=C1CC[C@H](S(=O)(=O)c1ccccn1)C2 [Example 68, ((4aS,6S)-1-(4-fluorophenyl)-6-(pyridin-2-ylsulfonyl)-1,4,5,6,7,8-hexahydro-4aH-benzo[f]indazol-4a-yl)(5-fluoropyridin-2-yl)methanone]
9 | ≤ 100 nM | O=C(c1ccc(C(F)(F)F)cn1)[C@]12Cc3cnn(-c4ccc(F)cc4)c3C=C1CC[C@H](S(=O)(=O)C1CCOCC1)C2 [Example 70, ((4aS,6S)-1-(4-fluorophenyl)-6-((tetrahydro-2H-pyran-4-yl)sulfonyl)-1,4,5,6,7,8-hexahydro-4aH-benzo[f]indazol-4a-yl)(5-(trifluoromethyl)pyridin-2-yl)methanone]
10 | ≤ 100 nM | O=C(c1cc(C(F)(F)F)ccn1)[C@]12Cc3cnn(-c4ccc(F)cc4)c3C=C1CC[C@H](S(=O)(=O)c1cnn(C3CC3)c1)C2 [Example 71, ((4aS,6S)-6-((1-cyclopropyl-1H-pyrazol-4-yl)sulfonyl)-1-(4-fluorophenyl)-1,4,5,6,7,8-hexahydro-4aH-benzo[f]indazol-4a-yl)(4-(trifluoromethyl)pyridin-2-yl)methanone]
11 | ≤ 100 nM | Cn1cc(S(=O)(=O)[C@H]2CCC3=Cc4c(cnn4-c4ccc(F)cc4)C[C@]3(C(=O)c3ccc(C4CC4)cn3)C2)cn1 [Example 72, (5-cyclopropylpyridin-2-yl)((4aS,6S)-1-(4-fluorophenyl)-6-((1-methyl-1H-pyrazol-4-yl)sulfonyl)-1,4,5,6,7,8-hexahydro-4aH-benzo[f]indazol-4a-yl)methanone]
12 | ≤ 100 nM | O=C(c1cc(C(F)(F)F)ccn1)[C@]12Cc3cnn(-c4ccc(F)cc4)c3C=C1CC[C@H](S(=O)(=O)c1cnn(C3CC3)n1)C2 [Example 73, ((4aS,6S)-6-((2-cyclopropyl-2H-1,2,3-triazol-4-yl)sulfonyl)-1-(4-fluorophenyl)-1,4,5,6,7,8-hexahydro-4aH-benzo[f]indazol-4a-yl)(4-(trifluoromethyl)pyridin-2-yl)methanone]
13 | ≤ 100 nM | O=C(c1ccc(Cl)cn1)[C@]12Cc3cnn(-c4ccc(F)cc4)c3C=C1CC[C@H](S(=O)(=O)c1ccccn1)C2 [Example 74, (5-chloropyridin-2-yl)((4aS,6S)-1-(4-fluorophenyl)-6-(pyridin-2-ylsulfonyl)-1,4,5,6,7,8-hexahydro-4aH-benzo[f]indazol-4a-yl)methanone]
14 | ≤ 100 nM | O=C(c1cc(C(F)(F)F)ccn1)[C@]12Cc3cnn(-c4ccc(F)cc4)c3C=C1CC[C@H](S(=O)(=O)c1cnn(CC(F)(F)F)c1)C2 [Example 75, ((4aS,6S)-1-(4-fluorophenyl)-6-((1-(2,2,2-trifluoroethyl)-1H-pyrazol-4-yl)sulfonyl)-1,4,5,6,7,8-hexahydro-4aH-benzo[f]indazol-4a-yl)(4-(trifluoromethyl)pyridin-2-yl)methanone]
15 | ≤ 100 nM | CCn1cc(S(=O)(=O)[C@H]2CCC3=Cc4c(cnn4-c4ccc(F)cc4)C[C@]3(C(=O)c3cc(C(F)(F)F)ccn3)C2)cn1 [Example 76, ((4aS,6S)-6-((1-ethyl-1H-pyrazol-4-yl)sulfonyl)-1-(4-fluorophenyl)-1,4,5,6,7,8-hexahydro-4aH-benzo[f]indazol-4a-yl)(4-(trifluoromethyl)pyridin-2-yl)methanone]
16 | ≤ 100 nM | CCn1ncc(S(=O)(=O)[C@H]2CCC3=Cc4c(cnn4-c4ccc(F)cc4)C[C@]3(C(=O)c3ccc(C(F)(F)F)cn3)C2)n1 [Example 77, ((4aS,6S)-6-((2-ethyl-2H-1,2,3-triazol-4-yl)sulfonyl)-1-(4-fluorophenyl)-1,4,5,6,7,8-hexahydro-4aH-benzo[f]indazol-4a-yl)(5-(trifluoromethyl)pyridin-2-yl)methanone]
17 | ≤ 100 nM | CN([C@H]1CCC2=Cc3c(cnn3-c3ccc(F)cc3)C[C@]2(C(=O)c2ccc(C3CC3)cn2)C1)S(=O)(=O)c1cnn(C)n1 [Example 78, N-((4aS,6S)-4a-(5-cyclopropylpicolinoyl)-1-(4-fluorophenyl)-4,4a,5,6,7,8-hexahydro-1H-benzo[f]indazol-6-yl)-N,2-dimethyl-2H-1,2,3-triazole-4-sulfonamide]
18 | ≤ 100 nM | O=C(c1cc(C(F)(F)F)ccn1)[C@]12Cc3cnn(-c4ccc(F)cc4)c3C=C1CC[C@H](S(=O)(=O)c1cnn(CC3CC3)n1)C2 [Example 79, ((4aS,6S)-6-((2-(cyclopropylmethyl)-2H-1,2,3-triazol-4-yl)sulfonyl)-1-(4-fluorophenyl)-1,4,5,6,7,8-hexahydro-4aH-benzo[f]indazol-4a-yl)(4-(trifluoromethyl)pyridin-2-yl)methanone]
19 | ≤ 100 nM | CN([C@H]1CCC2=Cc3c(cnn3-c3ccc(F)cc3)C[C@]2(C(=O)c2ccccn2)C1)S(=O)(=O)c1ccccc1 [Example 80, N-((4aS,6S)-1-(4-fluorophenyl)-4a-picolinoyl-4,4a,5,6,7,8-hexahydro-1H-benzo[f]indazol-6-yl)-N-methylbenzenesulfonamide]
20 | ≤ 100 nM | CN([C@H]1CCC2=Cc3c(cnn3-c3ccc(F)cc3)C[C@]2(C(=O)c2ccccn2)C1)S(=O)(=O)c1cccc(Cl)c1 [Example 82, 3-chloro-N-((4aS,6S)-1-(4-fluorophenyl)-4a-picolinoyl-4,4a,5,6,7,8-hexahydro-1H-benzo[f]indazol-6-yl)-N-methylbenzenesulfonamide]
21 | ≤ 100 nM | CN([C@H]1CCC2=Cc3c(cnn3-c3ccc(F)cc3)C[C@]2(C(=O)c2ccccn2)C1)S(=O)(=O)c1cccc(C(F)(F)F)c1 [Example 83, N-((4aS,6S)-1-(4-fluorophenyl)-4a-picolinoyl-4,4a,5,6,7,8-hexahydro-1H-benzo[f]indazol-6-yl)-N-methyl-3-(trifluoromethyl)benzenesulfonamide]
22 | ≤ 100 nM | CN([C@H]1CCC2=Cc3c(cnn3-c3ccc(F)cc3)C[C@]2(C(=O)c2ccccn2)C1)S(=O)(=O)c1cccnc1 [Example 84, N-((4aS,6S)-1-(4-fluorophenyl)-4a-picolinoyl-4,4a,5,6,7,8-hexahydro-1H-benzo[f]indazol-6-yl)-N-methylpyridine-3-sulfonamide]
